Legend:
[1] = system: capsular contracture; assay: Treatment of capsular contracture after breast implantation in patients (case reports, Bakers Class); type: in vivo, human
Experimental: The breasts remained soft until 4 years and 2 months following the operation. The left breast then developed Bakers Class III capsular contracture, but the right breast remained soft. Patient was then placed on ACCOLATE® 20 mg, twice daily. One month following the prescription of ACCOLATE®, the left breast was softer (Bakers Class II) and three months later, it was even softer (Bakers Class I). Four months following ACCOLATE® therapy, both breasts were soft again (Bakers Class I). […] Two weeks following the operation, patient developed bilateral Bakers Class III capsular contractures. […] Three months following the ACCOLATE® therapy, both breasts had achieved Bakers Class I status and at 8 months post-ACCOLATE® therapy, both breasts remained soft and at Bakers Class I level. […] Twenty days following the second operation, patient noted an increasing firmness of both breasts and breast massage and vitamin E therapy was continued. However, four months following the second operation, patient developed a severe capsular contracture in the left breast (Bakers Class IV). The right breast, however, remained soft (Bakers Class I). Patient was placed on ACCOLATE® at 20 mg twice daily. […] person was diagnosed with infiltrating ductal carcinoma in the left breast in June of 2000. Patient underwent a modified radical mastectomy with immediate reconstruction with placement of a tissue expander. […] Postoperatively, patient received chemotherapy (ADRIAMYCIN®, Cyclophosphamide, TAXOL®) and was placed on a study protocol for HERCEPTIN®. In February of 2001, patient underwent exchange of the tissue expander for a […] textured saline implant which was placed submuscularly. Six weeks following the implant placement, patient received local radiation therapy to the left breast of which they received a total of 5000 rads. Immediately following the radiation therapy, patient noted redness and blistering of the skin surrounding the left breast. Three weeks post-radiation therapy, patient noted hardening of the left breast mound, which quickly progressed to a Bakers Class IV capsular contracture by the fifth week following radiation therapy. […] Patient was then placed on ACCOLATE® therapy at 20 mg twice a day. […] Additionally, patient noted a significant improvement in the mastectomy scar which had been extremely hard and firm prior to the ACCOLATE® therapy. […] person underwent augmentation mammoplasty in 1986. 250 cc silicon implants were placed on each side above the muscle. Postoperatively the subject had no complications. The breasts remained soft for 5 years. In 1991, subject noted increasing firmness in both breasts. Subject received no treatment at that time. 17 years after surgery, subject was presented for possible surgical intervention. Upon examination, subject was noted to have Bakers Class IV capsular contractures bilaterally and was placed on Zafirlukast (Accolate®) 20 mg two times daily. […] Three months post Zafirlukast (Accolate®) therapy, subject went progressed a Bakers Class IV to a Bakers Class III on the right and a Bakers Class II on the left.

[2] = system: mastectomy scar; assay: Effect on mastectomy scar in a patient (case report); type: in vivo, human; conditions: Example IV patient, scar extremely hard and firm before therapy; 20 mg twice a day
Description: Person was diagnosed with infiltrating ductal carcinoma in the left breast in June of 2000. Patient underwent a modified radical mastectomy with immediate reconstruction with placement of a tissue expander. […] Postoperatively, patient received chemotherapy (ADRIAMYCIN®, Cyclophosphamide, TAXOL®) and was placed on a study protocol for HERCEPTIN®. In February of 2001, patient underwent exchange of the tissue expander for a […] textured saline implant which was placed submuscularly. Six weeks following the implant placement, patient received local radiation therapy to the left breast of which they received a total of 5000 rads. Immediately following the radiation therapy, patient noted redness and blistering of the skin surrounding the left breast. Three weeks post-radiation therapy, patient noted hardening of the left breast mound, which quickly progressed to a Bakers Class IV capsular contracture by the fifth week following radiation therapy. […] Patient was then placed on ACCOLATE® therapy at 20 mg twice a day. […] Additionally, patient noted a significant improvement in the mastectomy scar which had been extremely hard and firm prior to the ACCOLATE® therapy.

[3] = 20 mg twice daily accepted dosage, adults and children ages 12 and up; cited from earlier work
[4] = Example IV patient, 20 mg twice a day, after one month

Row | Molecule | Softness of breast implant ([1]; Example IV patient, post-radiation Bakers Class IV before therapy, 20 mg twice a day, two weeks) | Bakers Class of capsular contracture, left breast implant [1, 4] | Pain and distortion [1, 4] | Softness of both breasts ([1]; Example V patient, bilateral Bakers Class IV before therapy, 20 mg two times daily, 3 weeks) | Mastectomy scar appearance and hardness [2] | Reported side effect: headaches [3] | Reported side effect: nausea [3] | Relief of capsular contracture ([1]; Example IV patient, Bakers Class IV, given with breast massage, before ACCOLATE therapy)
1 | COc1cc(C(=O)NS(=O)(=O)c2ccccc2C)ccc1Cc1cn(C)c2ccc(NC(=O)OC3CCCC3)cc12 [ACCOLATE®] | noticeable softening | approaching a Bakers Class I softness | completely gone | some improvement | both softer and less noticeable | 12.9% | 3.1% | 
2 | vitamin E |  |  |  |  |  |  |  | without relief
